# “Also recorded” adds a separate entry of the source.
# What was measured:
# spores [1] = test: effectiveness of quaternary salts with chlorine dioxide; type: cell-based; details: for results with chlorine dioxide in the testing embodiments: employed with chlorine dioxide; for effectiveness with chlorine dioxide: used with chlorine dioxide for the purposes of the invention
# Bacillus subtilis [2] = test: Comparative Sporicidal Test, didecyl dimethyl ammonium chloride alone; type: cell-based, Bacillus subtilis 19659; details: ten minutes contact; for Number Positive, Tube 1 (original culture) / Number Positive, Tube 2 (subculture): of 10
# Protocol: For further comparative purposes it was also decided to test the sporicidal activity of didecyl dimethyl ammonium chloride used alone and employing the bacteria and method described below.
# Porcelain penicylinders (Fisher Scientific #7-907)
# Incubation Time and Temperature
# In the above Table 4, Tube 1 is the original culture and Tube 2 is the subculture of Tube 1.
# The active ingredient in these tests was didecyl dimethyl ammonium chloride.
# In the above Table 4, the identification of the 1% solution and 0.4% solution refers to the level of total quaternary compound being tested.
# spores [3] = details: cited from earlier work
# Bacillus subtilis [4] = test: Comparative Sporicidal Test, chlorine dioxide alone; details: dilutions 1:10 and 1:25
# [5] = solutions; cited from earlier work
# [6] = cited from earlier work
smiles,measurement,setting,value
CCCCCCCCCC[N+](C)(C)CCCCCCCC.[Cl-] [Octyl-decyl dimethyl ammonium chloride],results with chlorine dioxide in the testing embodiments,spores [1],outstanding results
"CCCCCCCCCCCC(=O)OCCNC(=O)C[n+]1ccccc1 [lauric acid ester of colaminoformylmethyl pyridinium chloride, reference compound]",effectiveness with chlorine dioxide,spores [1],ineffective
"CCCCCCCCCCCCCCCC[N+](C)(C)Cc1ccccc1.[Cl-] [hexadecyldimethyl benzyl ammonium chloride, reference compound]",effectiveness with chlorine dioxide,spores [1],ineffective
"CCCCCCCCCC[N+](C)(C)CCCCCCCCCC.[Cl-] [Didecyl Dimethyl Ammonium Chloride, didecyl dimethyl ammonium chloride]",results with chlorine dioxide in the testing embodiments,spores [1],outstanding results
same,effectiveness with chlorine dioxide,spores [1],highly effective
same,"Number Positive, Tube 1 (original culture)",Bacillus subtilis [2]; 0.4% solution,0
same,"Number Positive, Tube 2 (subculture)",Bacillus subtilis [2]; 0.4% solution,10
same,"Number Positive, Tube 1 (original culture)",Bacillus subtilis [2]; 1% solution,0
same,"Number Positive, Tube 2 (subculture)",Bacillus subtilis [2]; 1% solution,9
same,sporicidal activity (conclusion),"Bacillus subtilis [2]; used alone, 1% and 0.4%",poor sporicidal activity; also recorded: only a static effect and not a cidal effect; also recorded: not sporicidal
CCCCCCCCCCCC[N+](C)(C)CCCCCCCCCCCC.[Cl-] [Didodecyl dimethyl ammonium chloride],results with chlorine dioxide in the testing embodiments,spores [1],outstanding results
same,effectiveness with chlorine dioxide,spores [1],highly effective
[O][Cl+][O-] [chlorine dioxide],sporicidal activity,spores [3]; alone in aqueous solutions,not sporicidal
same,outcome before 21 day observation period,Bacillus subtilis [4],failed completely
same,sporicidal activity (conclusion),Bacillus subtilis [4]; 2-12 hours contact,does not show satisfactory sporicidal activity; also recorded: failure as a sporicide
same,sporicidal test outcome,Bacillus subtilis [4]; twelve hours contact,not passed
same,"bactericidal, fungicidal, taste and odor control properties",[5],"excellent bactericidal, fungicidal, and taste and odor control properties"
CCCCCCCCCCCC[N+](C)(C)CCCCCCCC.[Cl-] [Octyl-dodecyl dimethyl ammonium chloride],results with chlorine dioxide in the testing embodiments,spores [1],outstanding results
same,effectiveness with chlorine dioxide,spores [1],highly effective
"CCCCCCCCCCCCCCCC[N+](C)(C)C.[Br-] [cetyl trimethyl ammonium bromide, reference compound]",effectiveness with chlorine dioxide,spores [1],ineffective
O=CCCCC=O [glutaraldehyde],shelf-life after activation,[6],14 days
same,time required to kill spores,spores [3]; commercial sporicidal composition,10 h

# From patent publication US4073888A, “Chlorine dioxide and quaternary ammonium salts as sterilizing agents” (priority 1975, dated 1978)
